Reference: patent US20220104486A1 (priority 2019, published 2022)
Where two headings read alike, the source gives them in different places.

Tested on: Fusarium graminearum
Type: in vivo
Settings: seed treatment 0.3 mg ai/seed
[1] = corn, 36 days after planting, F. graminearum inoculum in furrow

## O=C(NCCc1ncc(C(F)(F)F)cc1Cl)c1ccccc1C(F)(F)F [Fluopyram]
Corn (Zea mays, variety N29t), plant stand 36 days after planting, F. graminearum inoculum in furrow, on base treatment
  Count plant number per 12 row meter: 54.58, B per 12 row meter
Corn field trial, high disease pressure
  efficacy against Fusarium graminearum, in words: moderate control
[1]
  % efficacy based on loss of plants due to disease: 49.95%
  % loss of plants due to disease based on a maximum of 60 plants per 12 row meters: 9.03%
corn, 36 days after planting, F. graminearum inoculum in furrow, listed as commercial standard
  % loss of plants due to disease based on a maximum of 60 plants per 12 row meters: 9%
